Measurements as given in publication PMC4778717 (ChemMedChem, 2015).
In brackets after ≈: the same amount, converted by molar mass.

Tests used:
E. coli NR698 = assay: Bacteriostatic effect; format: cell-based; settings: for MIC: Escherichia coli, NR698, 24 h, read-out: MIC, E. coli NR698; for MIC, E. coli NR698: 24 hr incubation at 37 °C, outer membrane leaky mutant
S. aureus 6538 = assay: Bacteriostatic effect; format: cell-based; settings: for MIC: Staphylococcus aureus, 6538, 24 h, read-out: MIC, S. aureus 6538; for MIC, S. aureus 6538: 24 hr incubation at 37 °C
S. aureus Mu50 = assay: Bacteriostatic effect; format: cell-based; settings: for Fold by which 7b and 12a are more effective than the antibiotic (MIC): S. aureus Mu50, label = antibiotic compared
EcSecAN68 = EcSecAN68 (Escherichia coli, UniProt P10408); assay: biochemical; design: species or system E. coli
EcSecAN68, sequence (P10408 1-610): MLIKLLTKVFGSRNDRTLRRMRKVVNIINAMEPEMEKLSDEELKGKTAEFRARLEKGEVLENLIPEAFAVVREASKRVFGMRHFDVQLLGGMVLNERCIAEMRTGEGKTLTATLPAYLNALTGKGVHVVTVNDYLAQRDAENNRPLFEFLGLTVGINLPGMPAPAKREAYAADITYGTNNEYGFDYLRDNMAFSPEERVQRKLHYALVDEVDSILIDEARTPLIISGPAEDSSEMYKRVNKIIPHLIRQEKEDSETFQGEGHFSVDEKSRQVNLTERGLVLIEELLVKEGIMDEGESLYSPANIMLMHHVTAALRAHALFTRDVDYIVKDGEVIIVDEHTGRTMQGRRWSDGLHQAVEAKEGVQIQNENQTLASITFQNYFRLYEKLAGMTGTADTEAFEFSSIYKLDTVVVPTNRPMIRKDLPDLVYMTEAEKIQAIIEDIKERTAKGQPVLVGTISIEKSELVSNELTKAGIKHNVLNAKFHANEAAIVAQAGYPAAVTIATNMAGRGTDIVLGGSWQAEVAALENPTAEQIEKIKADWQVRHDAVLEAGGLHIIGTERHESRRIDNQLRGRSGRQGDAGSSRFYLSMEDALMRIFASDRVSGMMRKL

Structure (SMILES) | MIC (E. coli NR698) [µM] | MIC (S. aureus 6538) [µM] | Fold by which 7b and 12a are more effective than the antibiotic (MIC) (S. aureus Mu50) [fold] | MIC (S. aureus Mu50; Staphylococcus aureus, MRSA, read-out: MIC, S. aureus Mu50) [µg/mL] | IC50 (EcSecAN68) [µM] | MIC, E. coli NR698 (E. coli NR698) [µM] | MIC, S. aureus 6538 (S. aureus 6538) [µM]
CSc1nc(C)cc(Sc2nnc(-c3cc(C(F)(F)F)cc(C(F)(F)F)c3)[nH]2)n1 [Compound 7a, 4-((5-(3,5-Bis(trifluoromethyl)phenyl)-4H-1,2,4-triazol-3-yl)thio)-6-methyl-2-(methylthio) pyrimidine] | 33.3 (≈ 15 µg/mL) | 18.8 (≈ 8.49 µg/mL) |  |  |  |  | 
CN(C)[C@@H]1C(O)=C(C(N)=O)C(=O)[C@@]2(O)C(O)=C3C(=O)c4c(O)cccc4[C@@](C)(O)[C@H]3C[C@@H]12 [tetracycline] |  |  | > 80 | 63 (≈ 142 µM) |  |  | 
Cc1cc(C)cc(-c2nnc(Sc3cc(Cl)ncn3)[nH]2)c1 [Compound 9a, 4-Chloro-6-((5-(3,5-dimethylphenyl)-4H-1,2,4-triazol-3-yl)thio) pyrimidine] | > 250 | > 250 |  |  | > 200 |  | 
Cc1cc(C)cc(-c2nnc(Sc3cc(Cl)nc(Sc4ccccc4)n3)[nH]2)c1 [Compound 12b, 4-Chloro-6-((5-(3,5-dimethylphenyl)-4H-1,2,4-triazol-3-yl)thio)-2-(phenylthio) pyri-midine] |  |  |  |  |  | >250 | 12.5 (≈ 5.32 µg/mL)
CSc1nc(Cl)cc(Sc2nnc(-c3cc(F)cc(F)c3)[nH]2)n1 [Compound 7g, 4-Chloro-6-((5-(3,5-difluorophenyl)-4H-1,2,4-triazol-3-yl)thio)-2-(methylthio) pyrimidine] | 50 (≈ 18.6 µg/mL) | 41.6 (≈ 15.5 µg/mL) |  |  | > 100 |  | 
Fc1cccc(-c2nnc(Sc3nc(Cl)cc(Cl)n3)[nH]2)c1 [Compound 16d, 4,6-Dichloro-2-((5-(3-fluorophenyl)-4H-1,2,4-triazol-3-yl)thio) pyrimidine] | 200 (≈ 68.4 µg/mL) | ≥ 100 |  |  | > 100 |  | 
FC(F)(F)c1cc(-c2nnc(S)[nH]2)cc(C(F)(F)F)c1 [Compound 5a, 5-(3,5-Bis(trifluoromethyl)phenyl)-4H-1,2,4-triazole-3-thiol] | > 250 | > 250 |  |  | 60 |  | 
COc1cc(O)cc(-c2nnc(Sc3cc(Cl)nc(Sc4ccccc4)n3)[nH]2)c1 [Compound 12j, 3-(5-((6-Chloro-2-(phenylthio)pyrimidin-4-yl)thio)-4H-1,2,4-triazol-3-yl)-5-methoxy phenol] | > 250 | ≥ 250 |  |  | < 50 |  | 
OCCCCSc1nc(Cl)cc(Sc2nnc(-c3cc(C(F)(F)F)cc(C(F)(F)F)c3)[nH]2)n1 [Compound 12e, 4-((4-((5-(3,5-Bis(trifluoromethyl)phenyl)-4H-1,2,4-triazol-3-yl)thio)-6-chloropyri-midin-2-yl)thio) butan-1-ol] |  |  |  |  |  | 43.8 (≈ 23.2 µg/mL) | 25.0 (≈ 13.2 µg/mL)
CCn1cc(C(=O)O)c(=O)c2cc(F)c(N3CCNCC3)cc21 [norfloxacin] |  |  | > 330 |  |  |  | 
CSc1nccc(Sc2nnc(-c3cc(C)cc(C)c3)[nH]2)n1 [Compound 7d, 4-((5-(3,5-Dimethylphenyl)-4H-1,2,4-triazol-3-yl)thio)-2-(methylthio) pyrimidine] | > 250 | > 250 |  |  | 65 |  | 
CSc1nc(Cl)c2c(n1)Sc1nnc(-c3cc(C(F)(F)F)cc(C(F)(F)F)c3)n1N=C2 [Compound 24] | 12.5 (≈ 6.21 µg/mL) | 3.1 (≈ 1.54 µg/mL) |  |  | < 25 |  | 
CSc1nc(Cl)c2c(n1)Sc1nnc(-c3cc(C(F)(F)F)cc(C(F)(F)F)c3)n1NC2 [Compound 25] | > 250 | > 100 |  |  | 46 |  | 
FC(F)(F)c1cc(-c2n[nH]c(Sc3nc(Cl)cc(Cl)n3)n2)cc(C(F)(F)F)c1 [Compound 16a, 2-((3-(3,5-Bis(trifluoromethyl)phenyl)-1H-1,2,4-triazol-5-yl)thio)-4,6-dichloropyrimidine] | 12.5 (≈ 5.75 µg/mL) | 6.3 (≈ 2.9 µg/mL) |  |  | 50 |  | 
CCc1ccc(-c2nc(Sc3nc(Cl)cc(Cl)n3)[nH]c(=O)c2C#N)cc1 [Compound 20b, 2-((4,6-Dichloropyrimidin-2-yl)thio)-4-(4-ethylphenyl)-6-oxo-1,6-dihydropyrimidine-5-carbonitrile] | > 250 | > 250 |  |  | < 50 |  | 
COc1cc(OC)cc(-c2nnc(Sc3cc(Cl)nc(Sc4ccccc4)n3)[nH]2)c1 [Compound 12h, 4-Chloro-6-((5-(3,5-dimethoxyphenyl)-4H-1,2,4-triazol-3-yl)thio)-2-(phenylthio) pyrimidine] | > 250 | ≥ 100 |  |  | < 50 |  | 
Cc1cc(C)cc(-c2n[nH]c(Sc3nc(Cl)cc(Cl)n3)n2)c1 [Compound 16b, 4,6-Dichloro-2-((3-(3,5-dimethylphenyl)-1H-1,2,4-triazol-5-yl)thio) pyrimidine] | > 164 | 100 (≈ 35.2 µg/mL) |  |  |  |  | 

Structure (SMILES) | MIC (E. coli NR698) [µM] | MIC (S. aureus 6538) [µM] | Fold by which 7b and 12a are more effective than the antibiotic (MIC) (S. aureus Mu50) [fold] | MIC (S. aureus Mu50; Staphylococcus aureus, MRSA, read-out: MIC, S. aureus Mu50) [µg/mL] | IC50 (EcSecAN68) [µM] | MIC, E. coli NR698 (E. coli NR698) [µM] | MIC, S. aureus 6538 (S. aureus 6538) [µM]
Fc1cc(F)cc(-c2nnc(Sc3cc(Cl)nc(Sc4ccccc4)n3)[nH]2)c1 [Compound 12f, 4-Chloro-6-((5-(3,5-difluorophenyl)-4H-1,2,4-triazol-3-yl)thio)-2-(phenylthio) pyrimidine] | 31.3 (≈ 13.6 µg/mL) | 20.8 (≈ 9.03 µg/mL) |  |  | < 50 |  | 
COc1cc(OC)cc(-c2nnc(Sc3cc(Cl)nc(SC)n3)[nH]2)c1 [Compound 7h, 4-Chloro-6-((5-(3,5-dimethoxyphenyl)-4H-1,2,4-triazol-3-yl)thio)-2-(methylthio) pyrimidine] | 100 (≈ 39.6 µg/mL) | > 250 |  |  | < 50 |  | 
FC(F)(F)c1cc(-c2nnc(Sc3cc(Cl)ncn3)[nH]2)cc(C(F)(F)F)c1 [Compound 9b, 4-((5-(3,5-Bis(trifluoromethyl)phenyl)-4H-1,2,4-triazol-3-yl)thio)-6-chloropyrimidine] | 35.4 (≈ 15.1 µg/mL) | 18.8 (≈ 8 µg/mL) |  |  | 100 |  | 
CSc1nc(Cl)cc(Sc2nnc(-c3cc(C(F)(F)F)cc(C(F)(F)F)c3)o2)n1 [Compound 15, 2-(3,5-Bis(trifluoromethyl)phenyl)-5-((6-chloro-2-(methylthio)pyrimidin-4-yl)thio)-1,3,4-oxadiazole] | > 100 | > 250 |  |  | 200 |  | 
FC(F)(F)c1cc(-c2nnc(Sc3nc(Cl)cc(NCc4ccccc4)n3)[nH]2)cc(C(F)(F)F)c1 [Compound 16e, N-Benzyl-2-((3-(3,5-bis(trifluoromethyl)phenyl)-4H-1,2,4-triazol-5-yl)thio)-6-chloro-pyrimidin-4-amine] | ≥ 250 | 50 (≈ 26.5 µg/mL) |  |  | > 50 |  | 
FC(F)(F)c1ccc(-c2nnc(Sc3cc(Cl)nc(Sc4ccccc4)n3)[nH]2)cc1 [Compound 12i, 4-Chloro-2-(phenylthio)-6-((5-(4-(trifluoromethyl)phenyl)-4H-1,2,4-triazol-3-yl)thio) pyrimidine] | 12.5 (≈ 5.82 µg/mL) | 8.3 (≈ 3.87 µg/mL) |  |  | < 50 |  | 
CSc1nc(Cl)cc(Sc2nnc(-c3cccc(F)c3)[nH]2)n1 [Compound 7f, 4-Chloro-6-((5-(3-fluorophenyl)-4H-1,2,4-triazol-3-yl)thio)-2-(methylthio) pyrimidine] | 200 (≈ 70.8 µg/mL) | 175 (≈ 61.9 µg/mL) |  |  | < 50 |  | 
CSc1nc(Cl)cc(Sc2nnc(-c3cccc(C(F)(F)F)c3)[nH]2)n1 [Compound 7j, 4-Chloro-2-(methylthio)-6-((5-(3-(trifluoromethyl)phenyl)-4H-1,2,4-triazol-3-yl)thio) pyrimidine] | > 250 | > 250 |  |  | < 50 |  | 
FC(F)(F)c1cc(-c2n[nH]c(Oc3nc(Cl)cc(Oc4nnc(-c5cc(C(F)(F)F)cc(C(F)(F)F)c5)[nH]4)n3)n2)cc(C(F)(F)F)c1 [Compound 18] | > 250 | 250 (≈ 176 µg/mL) |  |  | < 50 |  | 
CSc1nccc(Sc2nnc(-c3cc(C(F)(F)F)cc(C(F)(F)F)c3)[nH]2)n1 [Compound 7c, 4-((5-(3,5-Bis(trifluoromethyl)phenyl)-4H-1,2,4-triazol-3-yl)thio)-2-(methylthio) pyrimidine] | 50 (≈ 21.9 µg/mL) | 62.5 (≈ 27.3 µg/mL) |  |  | 95 |  | 
CSc1nc(Cl)cc(Sc2nnc(-c3cc(C)cc(C)c3)[nH]2)n1 [Compound 7e, 4-Chloro-6-((5-(3,5-dimethylphenyl)-4H-1,2,4-triazol-3-yl)thio)-2-(methylthio) pyrimidine] | 50 (≈ 18.2 µg/mL) | 50 (≈ 18.2 µg/mL) |  |  | 30 |  | 
CSc1nc(Cl)cc(Sc2nnc(-c3ccc(C(F)(F)F)cc3)[nH]2)n1 [Compound 7i, 4-Chloro-2-(methylthio)-6-((5-(4-(trifluoromethyl)phenyl)-4H-1,2,4-triazol-3-yl)thio) pyrimidine] | 25 (≈ 10.1 µg/mL) | 14.6 (≈ 5.9 µg/mL) |  |  | < 50 |  | 
N#Cc1c(-c2ccc(Br)cc2)nc(Sc2nc(Cl)cc(Cl)n2)[nH]c1=O [Compound 20a, 4-(4-Bromophenyl)-2-((4,6-dichloropyrimidin-2-yl)thio)-6-oxo-1,6-dihydropyrimidine-5-carbonitrile] | > 250 | > 250 |  |  | < 50 |  | 
CSC1=NC2=C(CN1)CNn1c(nnc1-c1cc(C(F)(F)F)cc(C(F)(F)F)c1)S2 [Compound 26] | > 100 | > 100 |  |  | 50 |  | 
FC(F)(F)c1cc(-c2nnc(Sc3nc(Cl)cc(Cl)n3)o2)cc(C(F)(F)F)c1 [Compound 17, 2-(3,5-Bis(trifluoromethyl)phenyl)-5-((4,6-dichloropyrimidin-2-yl)thio)-1,3,4-oxadiazole] | > 250 | 18.8 (≈ 8.67 µg/mL) |  |  | 70 |  | 
FC(F)(F)c1cc(-c2nnc(Sc3cc(Cl)nc(Oc4ccccc4)n3)[nH]2)cc(C(F)(F)F)c1 [Compound 12c, 4-((5-(3,5-Bis(trifluoromethyl)phenyl)-4H-1,2,4-triazol-3-yl)thio)-6-chloro-2-phenoxy-pyrimidine] | 8.3 (≈ 4.3 µg/mL) | 3.1 (≈ 1.61 µg/mL) |  |  | 9 |  | 
FC(F)(F)c1cccc(-c2nnc(Sc3cc(Cl)nc(Sc4ccccc4)n3)[nH]2)c1 [Compound 12g, 4-Chloro-2-(phenylthio)-6-((5-(3-(trifluoromethyl)phenyl)-4H-1,2,4-triazol-3-yl)thio) pyrimidine] | 18.8 (≈ 8.76 µg/mL) | 18.8 (≈ 8.76 µg/mL) |  |  | < 50 |  | 
